# In patent US8044211B2 (Chroma Therapeutics Ltd., priority 2006, dated 2011):
# Where two headings read alike, the source gives them in different places.
# Tests used:
# p38 MAP Kinase a = target: T1, p38 MAP Kinase a (Homo sapiens, UniProt Q16539); assay: p38 MAP Kinase activity, radiometric filter-binding assay (Upstate); assay type: biochemical; conditions: IC50 range; ATP at or close to Km; read-out: Inhibitor activity versus p38 MAPKa
# T1 construct: purchased Upstate (Dundee UK)
# Procedure: The ability of compounds to inhibit p38 MAP a Kinase activity was measured in an assay performed by Upstate (Dundee UK). In a final reaction volume of 25 μL, p38 MAP Kinase a (5-10 mU) is incubated with 25 mM Tris pH 7.5, 0.002 mMEGTA, 0.33 mg/mL myelin basic protein, 10 mM MgAcetate and [g-33P-ATP] (specific activity approx. 500 cpm/pmol, concentration as required). The reaction is initiated by the addition of the MgATP mix. After incubation for 40 minutes at room temperature, the reaction is stopped by the addition of 5 μL of a 3% phosphoric acid solution. 10 μL of the reaction is then spotted onto a P30 filtermat and washed three times for 5 minutes in 75 mM phosphoric acid and once in methanol prior to drying and scintillation counting.
# Duplicate data points are generated from a ⅓ log dilution series of a stock solution in DMSO. Nine dilutions steps are made from a top concentration of 10 μM, and a ‘no compound’ blank is included. The standard radiometric filter-binding assay is performed at an ATP concentration at, or close to, the Km. Data from scintillation counts are collected and subjected to free-fit analysis by Prism software. From the curve generated, the concentration giving 50% inhibition is determined and reported.
# THP-1 TNFα release = assay: LPS-stimulation of THP-1 cells, TNF-α by ELISA; assay type: cell-based; conditions: IC50 range, LPS 1 μg/ml, 6 hrs, read-out: Inhibitor activity versus THP-1 TNFα release
# Procedure: THP-1 cells were plated in 100 μl at a density of 4×10^4 cells/well in V-bottomed 96 well tissue culture treated plates and incubated at 37° C. in 5% CO2 for 16 hrs. 2 hrs after the addition of the inhibitor in […], of tissue culture media, the cells were stimulated with LPS (E. coli strain 005:B5, Sigma) at a final concentration of 1 μg/ml and incubated at 37° C. in 5% CO2 for 6 hrs. TNF-α levels were measured from cell-free supernatants by sandwich ELISA (R&D Systems #QTA00B).
# T1 sequence (Q16539 whole entry): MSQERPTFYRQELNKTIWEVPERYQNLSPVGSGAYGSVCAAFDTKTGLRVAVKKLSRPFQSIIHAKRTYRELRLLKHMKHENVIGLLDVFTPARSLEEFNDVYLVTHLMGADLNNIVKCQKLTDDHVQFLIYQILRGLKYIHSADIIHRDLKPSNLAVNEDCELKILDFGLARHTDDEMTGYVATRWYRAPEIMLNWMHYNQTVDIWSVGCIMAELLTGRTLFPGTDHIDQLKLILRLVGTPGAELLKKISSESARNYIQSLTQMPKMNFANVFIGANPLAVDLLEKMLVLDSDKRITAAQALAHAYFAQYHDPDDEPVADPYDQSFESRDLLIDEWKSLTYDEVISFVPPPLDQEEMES
Compound,IC50 (p38 MAP Kinase a) [nM],"IC50 (THP-1 TNFα release; Homo sapiens, THP-1) [nM]",IC50 (THP-1 TNFα release) [nM]
"Nc1c(C(=O)c2ccc(F)cc2)ccc(=O)n1-c1ccc(CCN[C@H](C(=O)OC2CCCC2)c2ccccc2)cc1 [Example 61, Cyclopentyl(2S)-{[2-(4-{6-amino-5-[(4-fluorophenyl)carbonyl]-2-oxopyridin-1(2H)-yl}phenyl)ethyl]amino}(phenyl)ethanoate]",100 to 1000,< 100,
"CC(C)C[C@H](NCCc1ccc(-n2c(N)c(C(=O)c3ccc(Cl)cc3)ccc2=O)cc1)C(=O)OC1CCCC1 [Example 65, Cyclopentyl N-[2-(4-{6-amino-5-[(4-chlorophenyl)carbonyl]-2-oxopyridin-1(2H)-yl}phenyl)ethyl]-L-leucinate]",100 to 1000,< 100,
"Nc1c(C(=O)c2ccc(F)cc2)ccc(=O)n1-c1ccc(CN[C@H](C(=O)OC2CCCC2)c2ccccc2)cc1 [Example 1, Cyclopentyl(S)-{4-[6-Amino-5-(4-fluorobenzoyl)-2-oxo-2H-pyridin-1-yl]benzylamino}phenylacetate]",100 to 1000,> 1000,
"CC(C)C[C@H](NC(=O)COc1ccc(-n2c(N)c(C(=O)c3ccc(F)cc3)ccc2=O)cc1)C(=O)OC1CCCC1 [Example 56, Cyclopentyl N-({4-[6-amino-5-(4-fluorobenzoyl)-2-oxopyridin-1(2H)-yl]phenoxy}acetyl)-L-leucinate]",100 to 1000,> 1000,
"Nc1c(C(=O)c2ccc(F)cc2)ccc(=O)n1-c1ccc(CN[C@@H](Cc2ccccc2)C(=O)OC2CCCC2)cc1 [Example 2, Cyclopentyl(S)-2-{4-[6-Amino-5-(4-fluorobenzoyl)-2-oxo-2H-pyridin-1-yl]benzylamino}-3-phenylpropionate]",100 to 1000,> 1000,
"Cc1ccc(C(=O)c2ccc(=O)n(-c3ccc(CCN[C@@H](CC(C)C)C(=O)OC4CCCC4)cc3)c2N)cc1 [Example 63, Cyclopentyl N-[2-(4-{6-amino-5-[(4-methylphenyl)carbonyl]-2-oxopyridin-1(2H)-yl}phenyl)ethyl]-L-leucinate]",> 1000,< 100,
"CC(C)C[C@H](NCCCCCOc1cc(F)c(-n2c(N)c(C(=O)c3ccc(F)cc3)ccc2=O)c(F)c1)C(=O)OC1CCCC1 [Example 55, Cyclopentyl N-(5-{4-[6-amino-5-(4-fluorobenzoyl)-2-oxopyridin-1(2H)-yl]-3,5-difluorophenoxy}pentyl)-L-leucinate]",100 to 1000,< 100,
"Cyclopentyl(S)-2-{4-[6-Amino-5-(2,4-fluorobenzoyl)-2-oxo-2H-pyridin-1-yl]-3,5-difluorobenzylamino}-3-phenylpropionate [Example 10]",< 100,,100 to 1000
"CC(C)C[C@H](NCCCOc1ccc(-n2c(N)c(C(=O)c3ccc(F)cc3)ccc2=O)c(F)c1)C(=O)OC1CCCC1 [Example 66, Cyclopentyl N-[3-(4-{6-amino-5-[(4-fluorophenyl)carbonyl]-2-oxopyridin-1(2H)-yl}-3-fluorophenoxy)propyl]-L-leucinate]",100 to 1000,100 to 1000,
"Cc1cc(C(=O)c2ccc(=O)n(-c3ccc(CN[C@@H](Cc4ccccc4)C(=O)OC4CCCC4)cc3)c2N)ccc1F [Example 5, Cyclopentyl(S)-2-{4-[6-Amino-5-(3-methyl-4-fluorobenzoyl)-2-oxo-2H-pyridin-1-yl]benzylamino}-3-phenylpropionate]",100 to 1000,> 1000,
"Nc1c(C(=O)c2ccc(F)cc2)ccc(=O)n1C1CCC(N[C@@H](Cc2ccccc2)C(=O)OC2CCCC2)CC1 (single isomer, unassigned) [Example 34]",100 to 1000,> 1000,
"COc1ccc(C(=O)c2ccc(=O)n(-c3ccc(CCN[C@@H](CC(C)C)C(=O)OC4CCCC4)cc3)c2N)cc1 [Example 64, Cyclopentyl N-[2-(4-{6-amino-5-[(4-methoxyphenyl)carbonyl]-2-oxopyridin-1(2H)-yl}phenyl)ethyl]-L-leucinate]",> 1000,100 to 1000,
"Nc1c(C(=O)c2ccc(F)cc2F)ccc(=O)n1-c1c(F)cc(OCCCN[C@@H](C(=O)OC2CC3CCC2C3)c2ccccc2)cc1F (stereo partly drawn) [Example 44, Bicyclo[2.2.1]hept-2-yl (2R)-[(3-{4-[6-amino-5-(2,4-difluorobenzoyl)-2-oxopyridin-1(2H)-yl]-3,5-difluorophenoxy}propyl)amino](phenyl)acetate]",100 to 1000,< 100,

# Continued, in another order:
IC50 (p38 MAP Kinase a) [nM],"IC50 (THP-1 TNFα release; Homo sapiens, THP-1) [nM]",Compound,IC50 (THP-1 TNFα release) [nM]
< 100,100 to 1000,"Nc1c(C(=O)c2ccc(F)cc2)ccc(=O)n1-c1ccc(OCCCN[C@@H](Cc2ccccc2)C(=O)OC2CCCC2)cc1 [Example 24, Cyclopentyl(S)-2-(3-{4-[6-Amino-5-(4-fluorobenzoyl)-2-oxo-2H-pyridin-1-yl]phenoxy}propylamino)-3-phenylpropionate]",
< 100,< 100,"CC(C)C[C@H](NCCCCCOc1cc(F)c(-n2c(N)c(C(=O)c3ccc(F)cc3F)ccc2=O)c(F)c1)C(=O)OC(C)(C)C [Example 54, tert-Butyl N-(5-{4-[6-amino-5-(2,4-difluorobenzoyl)-2-oxopyridin-1(2H)-yl]-3,5-difluorophenoxy}pentyl)-L-leucinate]",
< 100,100 to 1000,"Cc1cc(C(=O)c2ccc(=O)n(-c3ccc(OCCCN[C@@H](Cc4ccccc4)C(=O)OC4CCCC4)cc3)c2N)ccc1F [Example 12, Cyclopentyl(S)-2-(3-{4-[6-Amino-5-(3-methyl-4-fluorobenzoyl)-2-oxo-2H-pyridin-1-yl]phenoxy}propylamino)-3-phenyl propionate]",
< 100,100 to 1000,"CC(C)(C)OC(=O)[C@H](Cc1ccccc1)NCCCOc1cc(F)c(-n2c(N)c(C(=O)c3ccc(F)cc3F)ccc2=O)c(F)c1 [Example 37, tert-Butyl(S)-2-(3-{4-[6-Amino-5-(2,4-difluorobenzoyl)-2-oxo-2H-pyridin-1-yl]-3,5-difluorophenoxy}-propylamino)-3-phenyl propionate]",
< 100,< 100,"CC(C)C[C@@H](NCCCOc1cc(F)c(-n2c(N)c(C(=O)c3ccc(F)cc3F)ccc2=O)c(F)c1)C(=O)OC(C)(C)C [Example 51, tert-Butyl N-(3-{4-[6-amino-5-(2,4-difluorobenzoyl)-2-oxopyridin-1(2H)-yl]-3,5-difluorophenoxy}propyl)-D-leucinate]",
< 100,100 to 1000,"CC(C)C[C@H](NCCCOc1ccc(-n2c(N)c(C(=O)c3ccc(F)cc3F)ccc2=O)cc1)C(=O)OC(C)(C)C [Example 39, tert-Butyl(S)-2-(3-{4-[6-Amino-5-(2,4-difluorobenzoyl)-2-oxo-2H-pyridin-1-yl]phenoxy}propylamino)-4-methyl pentanoate]",
< 100,< 100,"CC(C)C[C@H](NCCCOc1ccc(-n2c(N)c(C(=O)c3ccc(F)cc3F)ccc2=O)cc1)C(=O)OC1CCCC1 [Example 30, Cyclopentyl(S)-2-(3-{4-[6-Amino-5-(2,4-difluorobenzoyl)-2-oxo-2H-pyridin-1-yl]phenoxy}propylamino)-4-methyl pentanoate]",
< 100,< 100,"CC(C)C[C@H](NC1CCC(Oc2cc(F)c(-n3c(N)c(C(=O)c4ccc(F)cc4)ccc3=O)c(F)c2)CC1)C(=O)OC1CCCC1 (stereo partly drawn) [Example 33, Cyclopentyl(S)-2-(4-{4-[6-Amino-5-(4-fluorobenzoyl)-2-oxo-2H-pyridin-1-yl]-3,5-difluorophenoxy}cyclohexylamino)-4-methylpentanoate]",
< 100,< 100,"Nc1c(C(=O)c2ccc(F)cc2F)ccc(=O)n1-c1ccc(OCCCN[C@H](C(=O)OC2CCCC2)c2ccccc2)cc1 [Example 28, Cyclopentyl(S)-(3-{4-[6-Amino-5-(2,4-difluorobenzoyl)-2-oxo-2H-pyridin-1-yl]1-phenoxy}propylamino)phenyl acetate]",
< 100,100 to 1000,"Nc1c(C(=O)c2ccc(F)cc2)ccc(=O)n1-c1ccc(OCCCN[C@H](C(=O)OC2CCCC2)c2ccccc2)cc1 [Example 23, Cyclopentyl(S)-(3-{4-[6-Amino-5-(4-fluorobenzoyl)-2-oxo-2H-pyridin-1-yl]-phenoxy}propylamino)phenylacetate]",
< 100,< 100,"Cc1cc(C(=O)c2ccc(=O)n(-c3c(F)cc(OCCCN[C@H](C(=O)OC4CCCC4)c4ccccc4)cc3F)c2N)ccc1F [Example 17, Cyclopentyl(S)-(3-{4-[6-Amino-5-(4-fluoro-3-methylbenzoyl)-2-oxo-2H-pyridin-1-yl]-3,5-difluorophenoxy}propylamino) phenylacetate]",
< 100,> 1000,"O=C(c1ccc(F)cc1)c1ccc(=O)[nH]c1Nc1c(F)cc(CN[C@@H](Cc2ccccc2)C(=O)OC2CCCC2)cc1F [Example 71, Cyclopentyl(S)-2-[3,5-Difluoro-4-[3-(4-fluorobenzoyl)-6-oxo-1,6-dihydropyridin-2-ylamino]benzylamino]-3-phenylpropionate]",
